Results: EP4656642A1, “ESTROGEN RECEPTOR PROTEOLYSIS TARGETING CHIMERA COMPOUND AND USE THEREOF” (GAN & LEE PHARM CO., LTD, priority 2023, dated 2024)

What was measured:
Format in all cases: cell-based
T-47D cells = assay: Inhibition of cell proliferation in T-47D cells (CCK-8, 6 days); settings: 6 days of treatment, Table 3
Procedure, shortened: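 Viability read-out was CCK-8 after 6 days of compound treatment (37 °C, 5% CO2) across graded concentrations. Cells were T-47D seeded at 3,000 per well in 1640 medium plus 10% FBS. IC50 was calculated against proliferation.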

MCF-7 cells = assay: Inhibition of cell proliferation of MCF-7 cells (CCK-8, 9 days); settings: treated for 9 days, CCK-8 kit (Table 6)
Procedure, shortened: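 Read-out was CCK-8 viability after 9-day continuous exposure (37°C, 5% CO2) of MCF-7 cells plated at 800/well in 10% FBS DMEM across several compound concentrations. Values are proliferation IC50s.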

ERα [1] = molecular target: T1, ERα (Homo sapiens, UniProt P03372); assay: Degradation of ERα in MCF-7 cells (immunoblotting, 4 h)
T1 sequence (P03372 1-595): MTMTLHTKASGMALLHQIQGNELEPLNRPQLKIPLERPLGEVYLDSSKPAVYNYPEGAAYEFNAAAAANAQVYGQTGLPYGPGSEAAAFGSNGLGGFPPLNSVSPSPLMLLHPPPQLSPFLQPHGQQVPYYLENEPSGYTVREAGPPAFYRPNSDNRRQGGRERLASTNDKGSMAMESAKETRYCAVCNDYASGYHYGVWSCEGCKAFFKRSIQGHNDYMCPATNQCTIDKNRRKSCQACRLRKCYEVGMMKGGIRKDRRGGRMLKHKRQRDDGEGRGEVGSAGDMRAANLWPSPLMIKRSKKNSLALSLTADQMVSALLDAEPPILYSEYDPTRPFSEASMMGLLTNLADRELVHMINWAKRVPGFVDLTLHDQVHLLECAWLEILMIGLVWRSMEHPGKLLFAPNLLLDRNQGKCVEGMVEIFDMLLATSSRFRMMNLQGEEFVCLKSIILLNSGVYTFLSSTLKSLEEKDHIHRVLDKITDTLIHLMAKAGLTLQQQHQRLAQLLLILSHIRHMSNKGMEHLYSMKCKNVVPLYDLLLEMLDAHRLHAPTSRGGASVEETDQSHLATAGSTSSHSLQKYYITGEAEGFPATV
Procedure, shortened: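 Degradation rate reflects ERα band intensity, corrected to an internal reference protein, relative to control. Values come from Western blotting of lysates from MCF-7 cells exposed 4 h at 37°C to compounds at final concentrations of 0.15-1000nM.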

ERα [2] = molecular target: T1, ERα; assay: Degradation of ERα in T-47D cells (immunoblotting, 4 h); set-up: host or cells: T-47D
Procedure, shortened: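 ERα protein levels were assessed by immunoblot of RIPA lysates (with protease inhibitor) after 4 h exposure at 37°C. Compound was added in DMSO to T-47D cells at final concentrations of 0.15-1000 nM.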

SMILES	IC50 (T-47D cells) [nM]	IC50 (MCF-7 cells) [nM]	Degradation rate (%) of ERα in MCF-7 cells (ERα [1]; 1nM compound) [%]	Degradation rate (%) of ERα in MCF-7 cells (ERα [1]; 10nM compound) [%]	Degradation rate (%) of ERα in T-47D cells (ERα [2]; 1nM compound) [%]	Degradation rate (%) of ERα in T-47D cells (ERα [2]; 10nM compound) [%]
O=C1CCC(N2Cc3c(ccc4c3OCC43CCN(CCN4CCN(c5ccc([C@@H]6c7ccc(O)cc7CC[C@@H]6c6ccccc6)cc5)CC4)CC3)C2=O)C(=O)N1 (stereo partly drawn) [H20]	1.22	1320	-18	-14	13	-14
O=C1CCC(N2Cc3c(ccc4c3OCC43CCN(C4CCN(C(=O)C5CCN(c6ccc([C@@H]7c8ccc(O)cc8CC[C@@H]7c7ccccc7)cc6)CC5)[C@@H](C(=O)N5CCC(F)(F)CC5)C4)CC3)C2=O)C(=O)N1 (stereo partly drawn) [C1]	1.15	8.05	18	49	50	72
O=C1CCC(N2Cc3cc4c(cc3C2=O)OC2(CC4)CN(CC3CCC4(CC3)CCN(c3ccc([C@@H]5c6ccc(O)cc6CC[C@@H]5c5ccccc5)cc3)CC4)C2)C(=O)N1 (stereo partly drawn) [A37]	7	37	-12	8	15	35
O=C1CCC(N2Cc3c(ccc4c3OCC43CCN(C4CCC5(CC4)CCN(c4ccc(C6=C(c7ccc(Cl)cc7Cl)CCCc7cc(C(=O)O)ccc76)cc4)CC5)CC3)C2=O)C(=O)N1 (stereo not drawn) [F11]	10.4	103	14	43	20	57
O=C1CCC(N2Cc3c(ccc4c3OCC43CCN(C4CCN(C5CC6(CCN(c7ccc([C@@H]8c9ccc(O)cc9CC[C@@H]8c8ccccc8)cc7)CC6)C5)CC4F)CC3)C2=O)C(=O)N1 (stereo partly drawn) [H33]	1.37	12.5	32	76	27	72
O=C1CCC(N2Cc3c(ccc4c3OCC43CCN([C@H]4CCN(C5CC6(CCN(c7ccc([C@@H]8c9ccc(O)cc9CC[C@@H]8c8ccccc8)cc7)CC6)C5)C[C@H]4F)CC3)C2=O)C(=O)N1 (stereo partly drawn) [H36]	1.06	72.4	24	70	21	75
CNC(=O)[C@@H]1CC(N2CCC3(CC2)COc2c3ccc3c2CN(C2CCC(=O)NC2=O)C3=O)CCN1C1CC2(CCN(c3ccc([C@@H]4c5ccc(O)cc5CC[C@@H]4c4ccccc4)cc3)CC2)C1 (stereo partly drawn) [H38]	2.58	31.8	49	71	34	75
C[C@@H]1CN(C(=O)C2(F)CCN(c3ccc([C@@H]4c5ccc(O)cc5CC[C@@H]4c4ccccc4)cc3)CC2)CCC1N1CCC2(CC1)COc1c2ccc2c1CN(C1CCC(=O)NC1=O)C2=O (stereo partly drawn) [A96]	3.38	11	40	66	31	78
CN(CC(=O)N1CC2(CCc3cc4c(cc3O2)C(=O)N(C2CCC(=O)NC2=O)C4)C1)C1CCC2(CC1)CN(c1ccc([C@@H]3c4ccc(O)cc4CC[C@@H]3c3ccccc3)cc1)C2 (stereo partly drawn) [C18]	11.1	11400	10	29	24	50
O=C1CCC(N2Cc3ccc4c(c3C2=O)OC2(CC4)CCN(C3CC4(CCN(c5ccc([C@@H]6c7ccc(O)cc7CC[C@@H]6c6ccccc6)cc5)CC4)C3)CC2)C(=O)N1 (stereo partly drawn) [A45]	79	160	-3	-15	-6	-28
CC(C(=O)N1CCC2(CC1)COc1c2ccc2c1CN(C1CCC(=O)NC1=O)C2=O)N1CCC2(CCN(c3ccc([C@@H]4c5ccc(O)cc5CC[C@@H]4c4ccccc4)cc3)CC2)C1 (stereo partly drawn) [A88]	1.18	66.8	57	54	65	72
O=C1CCC(N2Cc3cc4c(cc3C2=O)OC2(CC4)CN(C3CC4(C3)CC3(CCN(c5ccc([C@@H]6c7ccc(O)cc7CC[C@@H]6c6ccccc6)cc5)CC3)C4)C2)C(=O)N1 (stereo partly drawn) [H25]	6.02	1720	-9	-50	23	48
O=C1CCC(N2Cc3c(ccc4c3OCC43CCN(CC(=O)N4CC[C@]5(CCN(c6ccc([C@@H]7c8ccc(O)cc8CC[C@@H]7c7ccccc7)cc6)C5)C4)CC3)C2=O)C(=O)N1 (stereo partly drawn) [H23]	1.58	9.19	44	51	50	68
CC1(CN2CCC3(CC2)COc2c3ccc3c2CN(C2CCC(=O)NC2=O)C3=O)CCN(C(=O)C2CCN(c3ccc([C@@H]4c5ccc(O)cc5CC[C@@H]4c4ccccc4)cc3)CC2)CC1 (stereo partly drawn) [A109]	2.93	42.8	10	54	31	75
C[C@@H]1Cc2c(ccc3[nH]ncc23)C(c2ccc(N3CCC4(CCC(N5CCC6(CC5)COc5c6ccc6c5CN(C5CCC(=O)NC5=O)C6=O)CC4)CC3)cn2)N1CC(F)(F)F (stereo partly drawn) [K41]	41	590	-3	64	54	84
